Residues, ends and D or L forms follow the SMILES beside them.
Assays:
Panc-1 cells = assay: Saturation cell binding assay, Panc-1; set-up: species or system human; conditions: biotin-labeled peptide 0-256 µM, 4 °C, 1 h
Protocol: Supplementary Information
Supplementary Materials and Methods
Saturation binding assays to determine the cellular binding affinities of peptides Cells (5 × 10^3 cells per well in a 96-well plate) were incubated with 1% bovine serum albumin (BSA) for 30 min and with different concentrations of biotin-labeled peptides (0, 2, 4, 8, 16, 32, 64, 128, and 256 µM) at 4 °C for 1 h. After washing, the cells were incubated with horseradish peroxidase-conjugated neutravidin (1:10,000 dilution; ThermoFisher Scientific, Waltham, MA) for 30 min at room temperature. Enzymatic activity was detected using a 3,3ʹ,5,5ʹ-tetramethylbenzidine substrate (ThermoFisher Scientific), and the reaction was stopped using 2 M sulfuric acid. The absorbance at 450 nm was measured in each well using a microplate reader (Tecan, Mannedorf, Switzerland). The KD values were then calculated using GraphPad Prism 6 software (GraphPad Inc., La Jolla, CA). […]
10 µM biotin-labeled CD44v6-binding peptides at 4 °C for 1 h. […]
Scientific) for 30 min at room temperature. […]

c-Met in MDA-MB231 cells = assay: HGF-induced c-Met internalization (confocal microscopy); type: cell-based, human; conditions: peptide pre-treatment 10 min, HGF 25 ng/mL 30 or 60 min
Protocol: To examine the internalization of CD44v6, 1 × 10^5 MDA-MB231 cells were seeded in each well of an 8-well chamber slide and cultured for 24 h. Next, the cells were incubated with a fresh culture medium containing FITC-labeled peptides (10 μM) at 37 °C for 10, 30, and 60 min and then stained with an anti-human CD44v6 mouse monoclonal antibody (clone no. VFF-7; Santa Cruz Biotechnology). The cells were then incubated with an Alexa Fluor 594-labeled goat anti-mouse IgG secondary antibody (Merck). To examine the internalization of c-Met, cells were incubated with recombinant human HGF at 25 ng/mL (R&D Systems, Minneapolis, MN) for 30 or 60 min with or without pre-treatment with peptides (20 µM) for 10 min. After incubation, the cells were stained with an anti-Met rabbit polyclonal antibody (clone no. C-28, 1:100 dilution; Santa Cruz Biotechnology). The cells were then incubated with an Alexa Fluor 594-labeled goat anti-rabbit IgG secondary antibody (Merck). For nuclear staining, the cells were incubated with DAPI and the ProLong antifade reagent before observation under a confocal microscope (Zeiss).

[1] = molecular target: T1, recombinant human CD44v6-Fc protein (Homo sapiens, UniProt P16070); assay: SPR analysis of peptide binding affinity to CD44v6-Fc; conditions: biotin-conjugated peptide on streptavidin chip, CD44v6-Fc 0.125-2 µM, steady-state 1:1 fit, pH 7.4
T1 sequence (P16070 386-428 limits assumed): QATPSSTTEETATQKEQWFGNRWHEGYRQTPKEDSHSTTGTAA
Protocol: The binding affinity (KD) of CD44v6-binding peptides to the CD44v6 protein was measured using an SPR instrument (Reichert Technologies, Depew, NY). A streptavidin chip was used as the immobilization substrate and exposed to biotin-labeled peptides (25 μΜ) at 5 μL/min for 50 min. The streptavidin only surface was used for the reference surface. All SPR signals were corrected by subtraction with the response of the reference surface. After washing, the chip was flowed with a solution of CD44v6-Fc or CD44-Fc protein (R&D Systems, Minneapolis, MN) in binding buffer (137 mM NaCl, 10 mM phosphate, 2.7 mM KCl pH 7.4, 62.5 µM BSA, and 0.005% Tween-20) at concentrations of 0.125, 0.25, 0.5, 1, and 2 μM at 10 μL/min for 3 min. Five concentrations (0.125, 0.25, 0.5, 1, and 2 µM) of CD44v6-Fc and CD44-Fc were used in a single-cycle dynamic SPR measurements. Resonance units were recorded and analyzed using Scrubber 2.0 software (BioLogic Software, Campbell, Australia). KD values were calculated by analyzing the steady-state binding data by fitting the curve of binding level against concentration with a 1:1 binding model (GraphPad Prism 7.0 software).

[2] = test system: c-Met and Erk phosphorylation in 4T1 cells; assay: Western blotting of HGF-induced c-Met and Erk phosphorylation, 4T1; type: cell-based, mouse; conditions: peptide pre-treatment 10 min, HGF 25 ng/mL 10 min
Protocol: (§1) To examine c-Met and Erk phosphorylation, MDA-MB231 cells were serum-starved for 24 h, pre-treated with CD44v6-binding peptides (20 µM) for 10 min, and incubated with 25 ng/mL HGF for 10 min. After the incubation, the cell lysates were subjected to Western blotting analyses using an anti-phospho-Met rabbit monoclonal antibody (clone no. D26; Cell Signaling Technology), anti-Met mouse monoclonal antibody (clone no. 25H2, 1:1000 dilution; Cell Signaling Technology), anti-phospho-Erk1/2 rabbit monoclonal antibody (clone no. 197G2; Cell Signaling Technology), and anti-ERK1 rabbit polyclonal antibody (1:1000 dilution; Santa Cruz Biotechnology). The labeled bands on immunoblots were detected using enhanced chemiluminescence reagents (ThermoFisher Scientific).
Supplementary Figure S3. NLN and NEW inhibit HGF-induced c-Met phosphorylation and cell migration and invasion in 4T1 breast tumor cells. (A) Western blotting analysis of c-Met and Erk phosphorylation in 4T1 cells pretreated or not with 5 μg/mL NLN and NEW for 10 min and treated with 25 ng/mL HGF for 10 min. (B) The quantification of c-Met and Erk […]
(1 picture or pasted object on this page, not shown here)

[3] = test system: c-Met and Erk phosphorylation in MDA-MB231 cells; assay: Western blotting of HGF-induced c-Met and Erk phosphorylation, MDA-MB231; type: cell-based, human; conditions: peptide 20 µM 10 min, HGF 25 ng/mL 10 min
Protocol: as §1

| SMILES | Kd (Panc-1 cells) [µM] | HGF-induced internalization of c-Met (c-Met in MDA-MB231 cells) | Kd [1] [µM] | HGF-induced phosphorylation of c-Met and Erk, 4T1 [2] | HGF-induced phosphorylation of c-Met and Erk, MDA-MB231 [3] |
| --- | --- | --- | --- | --- | --- |
| CC[C@H](C)[C@H](NC(=O)[C@@H](NC(=O)[C@H](CC(N)=O)NC(=O)[C@H](CC(C)C)NC(=O)[C@H](CC(N)=O)NC(=O)[C@@H](N)CS)[C@@H](C)O)C(=O)N[C@@H](CC(=O)O)C(=O)N[C@H](C(=O)N[C@@H](CS)C(=O)O)[C@@H](C)O [NLN] (H-CNLNTIDTC-OH; N-terminus and C-terminus assumed) | 8 ± 5 | inhibited | 0.253 ± 0.079 | inhibited | inhibited |
| CC(C)C[C@H](NC(=O)[C@H](CCC(N)=O)NC(=O)[C@H](Cc1c[nH]c2ccccc12)NC(=O)[C@H](CCC(=O)O)NC(=O)[C@H](CC(N)=O)NC(=O)[C@@H](N)CS)C(=O)N[C@@H](CCCCN)C(=O)N[C@@H](CO)C(=O)N[C@@H](CS)C(=O)O [NEW] (H-CNEWQLKSC-OH; N-terminus and C-terminus assumed) | 7 ± 3 | inhibited | 0.085 ± 0.018 | inhibited | inhibited |

From article PMC7738880, “Identification of novel CD44v6-binding peptides that block CD44v6 and deliver a pro-apoptotic peptide to tumors to inhibit tumor growth and metastasis in mice” (Theranostics, 2021)
